Measured values from patent publication US9861706B2, “GLP-1 receptor agonist peptide gastrin conjugates” (priority 2011, dated 2018).
Like-named read-outs stand apart in the source and are kept apart here. Square brackets hold non-standard residues; d marks the D form. Ends that are not written are not given here. AEEA = NCCOCCOCC(=O)O

B1: Compound 40 (peptide)
peptide: HGEGTFTSELSKYLEEEAVRLFIEC(PEG20K)LK[AEEA][AEEA]YGWLDF-NH2
modifications: not fully specified
B2: Compound 38 (peptide)
peptide: HGEGTFTSDLSKQLEEEAVRLFIECLKNXXYGWLDF
modifications: not fully specified; C(PEG5K) at position 25; 8Ado at positions 29 and 30; C-terminal amide (-NH2)
B3: Compound 22 (peptide)
peptide: HGEGTFTSELSKYLEEEAVRLFIEWLKNYGWLDF-NH2

How the values were obtained:
[1] = Pharmacokinetics in mice after single subcutaneous dose; assay type: in vivo, C57BI L/6J mice; conditions: C57BL/6J, mouse, sc
Method: At each time point, samples from two mice were taken. […] Plasma samples were analyzed after solid phase extraction (SPE) by liquid chromatography mass spectrometry (LC-MS/MS).

db/db mice = assay: Three weeks in vivo db/db mouse study
Method: Treatment Db/db mice were stratified to various treatment groups according to HbA1c levels. Mice were treated once daily with subcutaneous (SC) injections for a total of 21 days. Injection volume was 5 ml/kg. During the study body weights (BW) were recorded daily and used to administer the body weight-corrected doses of peptide. OGTT On day 16, an oral glucose tolerance test was performed in the animals. Blood glucose was measured before glucose (at t=0, baseline) and after glucose administration up to 2 hrs. Termination At termination the blood glucose levels were measured, and blood samples were analyzed for HbA1c levels. Measurements Whole blood glucose concentration (mM) was determined by the immobilized glucose oxidase method (Elite Autoanalyser, Bayer, Denmark). Blood samples were analyzed for HbA1c using the Cobas c111 analyzer (Roche Diagnostics, Mannheim, Germany).

human CCK-B receptor = biological target: T1, human CCK-B receptor (human, UniProt P32239 1-447); assay: cell-based or functional assay
T1 sequence (looked up): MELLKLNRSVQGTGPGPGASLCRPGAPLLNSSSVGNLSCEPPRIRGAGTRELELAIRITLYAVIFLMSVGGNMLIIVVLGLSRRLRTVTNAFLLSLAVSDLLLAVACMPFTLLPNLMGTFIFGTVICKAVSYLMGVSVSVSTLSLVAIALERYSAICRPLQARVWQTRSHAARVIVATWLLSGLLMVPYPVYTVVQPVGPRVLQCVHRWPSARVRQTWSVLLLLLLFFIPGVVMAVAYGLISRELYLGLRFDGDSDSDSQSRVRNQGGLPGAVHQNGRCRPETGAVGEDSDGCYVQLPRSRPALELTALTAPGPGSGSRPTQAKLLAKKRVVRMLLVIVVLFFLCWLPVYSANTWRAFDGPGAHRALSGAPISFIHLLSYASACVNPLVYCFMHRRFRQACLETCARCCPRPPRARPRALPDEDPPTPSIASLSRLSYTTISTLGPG

human GLP-1 receptor = human GLP-1 receptor (human, UniProt P43220 24-463); assay: cell-based or functional assay
[2] = SC 100 nmol/kg once daily, 21 days treatment

Sequence of human GLP-1 receptor (P43220 24-463): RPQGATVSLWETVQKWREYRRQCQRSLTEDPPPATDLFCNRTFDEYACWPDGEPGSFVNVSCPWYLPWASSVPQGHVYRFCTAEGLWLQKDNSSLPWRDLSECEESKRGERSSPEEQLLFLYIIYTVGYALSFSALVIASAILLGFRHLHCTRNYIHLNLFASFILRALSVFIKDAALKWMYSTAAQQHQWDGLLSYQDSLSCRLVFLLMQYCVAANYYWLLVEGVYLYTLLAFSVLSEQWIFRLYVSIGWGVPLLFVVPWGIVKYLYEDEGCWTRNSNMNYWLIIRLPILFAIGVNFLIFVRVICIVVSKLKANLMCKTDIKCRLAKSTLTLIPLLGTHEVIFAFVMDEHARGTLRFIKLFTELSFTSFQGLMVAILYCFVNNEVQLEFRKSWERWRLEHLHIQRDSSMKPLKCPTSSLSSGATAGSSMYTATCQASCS

| Molecule | half-life ([1]; in vivo, 100 nmol/kg) [h] | EC50, p-ERK in HEK293 cells stably expressing human CCK-B R (human CCK-B receptor) [nM] | EC50, cAMP induction in HEK293 cells expressing human GLP-1 R (human GLP-1 receptor) [nM] | other results |
| --- | --- | --- | --- | --- |
| CCCCCCCCCCCCCCCC(=O)N[C@@H](CCC(=O)NCCCC[C@H](NC(=O)[C@H](CCC(=O)O)NC(=O)[C@@H](NC(=O)[C@H](Cc1ccccc1)NC(=O)[C@H](CC(C)C)NC(=O)[C@H](CCCNC(=N)N)NC(=O)[C@@H](NC(=O)[C@H](C)NC(=O)[C@H](CCC(=O)O)NC(=O)[C@H](CCC(=O)O)NC(=O)[C@H](CCC(=O)O)NC(=O)[C@H](CC(C)C)NC(=O)[C@H](Cc1ccc(O)cc1)NC(=O)[C@H](CCCCN)NC(=O)[C@H](CO)NC(=O)[C@H](CC(C)C)NC(=O)[C@H](CCC(=O)O)NC(=O)[C@H](CO)NC(=O)[C@@H](NC(=O)[C@H](Cc1ccccc1)NC(=O)[C@@H](NC(=O)CNC(=O)[C@H](CCC(=O)O)NC(=O)CNC(=O)[C@@H](N)Cc1c[nH]cn1)[C@@H](C)O)[C@@H](C)O)C(C)C)[C@@H](C)CC)C(=O)N[C@@H](CC(C)C)C(=O)N[C@@H](CCCCN)C(=O)NCCOCCOCC(=O)NCCOCCOCC(=O)N[C@@H](Cc1ccc(O)cc1)C(=O)NCC(=O)N[C@@H](Cc1c[nH]c2ccccc12)C(=O)N[C@@H](CC(C)C)C(=O)N[C@@H](CC(=O)O)C(=O)N[C@@H](Cc1ccccc1)C(N)=O)C(=O)O [Compound 7] |  |  |  | half-life ([1]; s.c. administration of 100 nmol/kg in mice, plasma, read-out: T1/2 (converted)): 6.2 h |
| CC[C@H](C)[C@H](NC(=O)[C@H](Cc1ccccc1)NC(=O)[C@H](CC(C)C)NC(=O)[C@H](CCCNC(=N)N)NC(=O)[C@@H](NC(=O)[C@H](C)NC(=O)[C@H](CCC(=O)O)NC(=O)[C@H](CCC(=O)O)NC(=O)[C@H](CCC(=O)O)NC(=O)[C@H](CC(C)C)NC(=O)[C@H](Cc1ccc(O)cc1)NC(=O)[C@H](CCCCN)NC(=O)[C@H](CO)NC(=O)[C@H](CC(C)C)NC(=O)[C@H](CCC(=O)O)NC(=O)[C@H](CO)NC(=O)[C@@H](NC(=O)[C@H](Cc1ccccc1)NC(=O)[C@@H](NC(=O)CNC(=O)[C@H](CCC(=O)O)NC(=O)CNC(=O)[C@@H](N)Cc1c[nH]cn1)[C@@H](C)O)[C@@H](C)O)C(C)C)C(=O)N[C@@H](CCC(=O)O)C(=O)N[C@@H](Cc1ccccc1)C(=O)N[C@@H](CC(C)C)C(=O)N[C@@H](CCCCN)C(=O)N[C@@H](CC(=O)O)C(=O)N[C@@H](Cc1ccc(O)cc1)C(=O)NCC(=O)N[C@@H](Cc1c[nH]c2ccccc12)C(=O)N[C@@H](CC(C)C)C(=O)N[C@@H](CC(=O)O)C(=O)N[C@@H](Cc1ccccc1)C(N)=O [Compound 12] | 5 |  |  |  |
| CC[C@H](C)[C@H](NC(=O)[C@H](Cc1ccccc1)NC(=O)[C@H](CC(C)C)NC(=O)[C@H](CCCNC(=N)N)NC(=O)[C@@H](NC(=O)[C@H](C)NC(=O)[C@H](CCC(=O)O)NC(=O)[C@H](CCC(=O)O)NC(=O)[C@H](CCC(=O)O)NC(=O)[C@H](CC(C)C)NC(=O)[C@H](Cc1ccc(O)cc1)NC(=O)[C@H](CCCCN)NC(=O)[C@H](CO)NC(=O)[C@H](CC(C)C)NC(=O)[C@H](CCC(=O)O)NC(=O)[C@H](CO)NC(=O)[C@@H](NC(=O)[C@H](Cc1ccccc1)NC(=O)[C@@H](NC(=O)CNC(=O)[C@H](CCC(=O)O)NC(=O)CNC(=O)[C@@H](N)Cc1c[nH]cn1)[C@@H](C)O)[C@@H](C)O)C(C)C)C(=O)N[C@@H](CCC(=O)O)C(=O)N[C@@H](Cc1ccccc1)C(=O)N[C@@H](CC(C)C)C(=O)N[C@@H](CCCCN)C(=O)N[C@@H](CC(=O)O)C(=O)NCCOCCOCC(=O)NCCOCCOCC(=O)N[C@@H](Cc1ccc(O)cc1)C(=O)NCC(=O)N[C@@H](Cc1c[nH]c2ccccc12)C(=O)N[C@@H](CC(C)C)C(=O)N[C@@H](CC(=O)O)C(=O)N[C@@H](Cc1ccccc1)C(N)=O [Compound 19] | 2.4 |  |  |  |
| CC[C@H](C)[C@H](NC(=O)[C@H](Cc1ccccc1)NC(=O)[C@H](CC(C)C)NC(=O)[C@H](CCCNC(=N)N)NC(=O)[C@@H](NC(=O)[C@H](C)NC(=O)[C@H](CCC(=O)O)NC(=O)[C@H](CCC(=O)O)NC(=O)[C@H](CCC(=O)O)NC(=O)[C@H](CC(C)C)NC(=O)[C@H](Cc1ccc(O)cc1)NC(=O)[C@H](CCCCN)NC(=O)[C@H](CO)NC(=O)[C@H](CC(C)C)NC(=O)[C@H](CCC(=O)O)NC(=O)[C@H](CO)NC(=O)[C@@H](NC(=O)[C@H](Cc1ccccc1)NC(=O)[C@@H](NC(=O)CNC(=O)[C@H](CCC(=O)O)NC(=O)CNC(=O)[C@@H](N)Cc1c[nH]cn1)[C@@H](C)O)[C@@H](C)O)C(C)C)C(=O)N[C@@H](CCC(=O)O)C(=O)N[C@@H](Cc1c[nH]c2ccccc12)C(=O)N[C@@H](CC(C)C)C(=O)N[C@@H](CCCCN)C(=O)N[C@@H](CC(=O)O)C(=O)N[C@@H](Cc1ccc(O)cc1)C(=O)NCC(=O)N[C@@H](Cc1c[nH]c2ccccc12)C(=O)N[C@@H](CC(C)C)C(=O)N[C@@H](CC(=O)O)C(=O)N[C@@H](Cc1ccccc1)C(N)=O [Compound 23] | 6.7 |  |  | body weight gain (in words) (db/db mice; 3 week course of the study): lowered the body weight gain; Fasted BG level (mM) (db/db mice; SC 100 nmol/kg once daily, 16 days treatment): ++ ((++) indicates fasted BG between 6 and 8 mM); Delta-BW (g) (db/db mice; [2]): ++ ((++) indicates delta BW between 4 and 6 g); Delta-HbA1c (%) (db/db mice; [2]): +++ ((+++) indicates delta-HbA1c level below 0%); OGTT, AUC (mM*min) (db/db mice; SC 100 nmol/kg once daily, after 16 days of treatment): ++ ((++) indicates OGTT AUC between 1000 and 2000M*min); plasma levels of HbA1c (in words) (db/db mice; after 3 weeks treatment): lowered the plasma levels of HbA1c; fasting blood glucose levels (in words) (db/db mice; after 16 days treatment): lowered the fasting blood glucose levels; area under the glucose concentration curve (AUC) following an oral glucose challenge (in words) (db/db mice; day 16): lowered the area under the glucose concentration curve (AUC) |
| H-HGEGTFTSELSKYLEEEAVRLFIEWLKNYGWLDF-NH2 [Compound 22] |  |  |  | half-life ([1]; in vivo, s.c. administration of 100 nmol/kg in mice, plasma, read-out: T1/2 (converted)): 8.2 h |
| h[Leu15]Gastrin17 (from UniProt P01350 76-92) (peptide) |  | 2.89 |  |  |
| B1 |  | 133 | 0.37 |  |
| B2 |  | 61 | 0.037 |  |
| B3 |  | 31 | 0.085 |  |
